Experimental data published in PMC9304929, “The Cholesterol-Binding Sequence in Monomeric C-Reactive Protein Binds to the SARS-CoV-2 Spike Receptor-Binding Domain and Blocks Interaction With Angiotensin-Converting Enzyme 2” (Frontiers in Immunology, 2022).

Key:
[1] = biological target: SARS-CoV-2 spike RBD; test: Spike RBD-mCRP binding ELISA; conditions: for Kd: ELISA, spike RBD-immobilized microtiter wells, detection with mCRP-specific mAb 3H12, n = 3, mean ± S.E.M.
Experimental: The interactions of the spike-RBD with mCRP or CRP were also examined by enzyme-linked immunosorbent assay (ELISA) using mCRP/CRP-specific mAbs. Briefly, 100 μL of spike-RBD (1μg/mL) in Tris-buffered saline (TBS; 10 mM Tris, 140 mM NaCl, pH 7.4) was added per well to coat in 96-well microplates overnight at 4°C. The wells were then washed three times with TBS containing 0.02% Tween-20 for 5 min and blocked with 1% bovine serum albumin (BSA) in TBS for 1 h at 37°C. Next, mCRP was added and the plates were incubated for 1 h at 37°C. The color was developed by adding tetramethyl benzidine (TMB) to the wells and the color development was stopped with 1 M H2SO4.

[2] = tested on: binding of mCRP to the spike RBD; test: Peptide competition assay (ELISA) of mCRP binding to spike RBD; set-up: species or system SARS-CoV-2; conditions: spike RBD-coated wells (2 μg/mL), mCRP at half-saturation concentration with synthetic peptide, mAb 3H12, n = 3
[3] = tested on: SARS-CoV-2 spike RBD; test: Surface plasmon resonance (SPR) binding assay, spike RBD on CM5 chip
Experimental: (§1) Surface plasmon resonance (SPR) binding assays were performed using Biacore 8K instrument (Cytiva Life Sciences, Marlborough, MA, USA) in HEPES buffer containing 50 mM HEPES (pH 7.4), 150 mM NaCl, and 0.05% Tween-20 at 25°C. Spike-RBD was diluted to a concentration of 20 μg/mL with 10 mM sodium acetate (pH 5.0) and immobilized on a CM5 sensor chip (Cytiva Life Sciences, Marlborough, MA, USA). The mCRP samples were passed over the sensor chip at a flow rate of 30 μL/min with a concentration gradient from 3.125 nM to 100 nM. The association time was 180 s. A dissociation process was performed for 200 s at a flow rate of 30 μL/min. The dissociation constant (Kd) values were calculated by fitting result curves (subtracted from the control flow value) to a 1:1 Langmuir binding model with Biacore 8K evaluation software.

[4] = tested on: binding of the spike RBD to mCRP; set-up: species or system SARS-CoV-2
[5] = tested on: SARS-CoV-2 pseudovirus; conditions: 50 μM, preliminary results, data not shown
[6] = tested on: immortalized bone marrow-derived macrophages (iBMDM); test: Cytokine release from macrophages stimulated with CBS; assay type: cell-based; conditions: iBMDM stimulated with different concentrations of CBS, LPS positive control, n = 3
Experimental: To compare the inhibitory ability of the CBS peptide, different concentrations of the CBS peptide were added to the cell medium and incubated at 4°C for 30 min. After washing, the mixture was incubated for another 30 min with anti-Flag antibody, followed by incubation with a secondary antibody conjugated to Alexa Fluor 488. The inhibitory activity of the CBS peptide and positive control (lomefloxacin) was compared using flow cytometry with Alexa Fluor 488-conjugated spike RBD and phycoerythrin (PE)-conjugated ACE2. […] At the same time, we stimulated macrophages with the CBS peptide and detected the release of pro-inflammatory cytokines TNF-α and IL-6 to verify whether the CBS peptide itself is immunogenic.

[7] = tested on: spike RBD binding to cell surface ACE2 (A549 ACE2+/+ cells); test: Inhibition assay of spike-ACE2 interaction in cells (flow cytometry); assay type: cell-based, human; conditions: spike RBD 140 nM with ACE2+/+ cells, compound 4°C 30 min, n = 3
[8] = cited from earlier work
[9] = tested on: binding of the spike RBD to ACE2; test: SPR competition of spike RBD binding to ACE2; set-up: species or system human; conditions: fixed spike RBD concentration, different concentrations of mCRP
Experimental: as §1
Having confirmed that mCRP can bind to the spike RBD, we further questioned whether mCRP can compete for the binding of the spike RBD to ACE2. […] First, in the spike RBD binding assay with ACE2, the spike RBD concentration was fixed and different concentrations of mCRP were added to test whether mCRP could inhibit the binding of the spike RBD to ACE2.

## r-mCRP
[1]
  Kd: 24.4 ± 6.48 nM

## amino acids 35−42 (VCLHFYTE)
[2]
  inhibition of the binding of mCRP to the spike RBD (peptide competition assay): still inhibited

## ACE2
[3]; check of biological activity of the spike RBD protein
  binding of spike RBD to ACE2 (SPR): high affinity

## amino acids 41−47 (TELSSTR; UniProt P02741 59-65, looked up, fragment)
[2]
  inhibition of the binding of mCRP to the spike RBD (peptide competition assay): lost the ability to inhibit

## pCRP
[1]; spike RBD-immobilized wells, detection with pCRP-specific mAb 8D8, n = 3
  binding to the spike RBD (ELISA): did not bind

## u-mCRP
[1]
  Kd: 44.9 ± 6.27 nM

## CBS (VCLHFYTELSSTR)
[4]
  inhibition of the binding of the spike RBD to mCRP (SPR): almost completely inhibited
[5]
  inhibition of the invasion of SARS-CoV-2 pseudovirus into Caco-2 cells: partially inhibit
[2]
  inhibition of the binding of mCRP to the spike RBD (peptide competition assay): competitively inhibited
[6]
  release of pro-inflammatory cytokines TNF-α and IL-6: did not induce the release of cytokines
[7]
  inhibition of the binding of the spike RBD to the cell surface ACE2: inhibit the binding of the spike RBD to the cell surface ACE2 in a concentration-dependent manner

## CCn1cc(C(=O)O)c(=O)c2cc(F)c(N3CCNC(C)C3)c(F)c21 (stereo not shown) [lomefloxacin, Lomefloxacin, reference compound]
[7]
  inhibition of the binding of the spike RBD to the cell surface ACE2: almost completely inhibited

## amino acids 39−47 (FYTELSSTR)
[2]
  inhibition of the binding of mCRP to the spike RBD (peptide competition assay): lost the ability to inhibit

## mCRP
[8]
  half-life of blood-borne mCRP: rather short
[9]
  inhibition of the binding of the spike RBD to ACE2 (SPR): significantly inhibited
[3]; analyte 3.125-100 nM in fluid phase, spike RBD on CM5 chip, HEPES pH 7.4, 25°C
  binding to the spike RBD (SPR): high affinity
